pEC50: −log10 of the molar value. Several values for one entry are separate records, joined by “and”; a condition that tells them apart may be missing. Equal entries are not always repeated.
Key:
human M1 = target: T1, human M1 (Homo sapiens, UniProt P11229); assay: M1 PAM calcium mobilization assay (human); assay type: cell-based; conditions: for hM1 PAM AChmax (%): human M1, % ACh max, n = 9
T1 sequence (P11229 1-460): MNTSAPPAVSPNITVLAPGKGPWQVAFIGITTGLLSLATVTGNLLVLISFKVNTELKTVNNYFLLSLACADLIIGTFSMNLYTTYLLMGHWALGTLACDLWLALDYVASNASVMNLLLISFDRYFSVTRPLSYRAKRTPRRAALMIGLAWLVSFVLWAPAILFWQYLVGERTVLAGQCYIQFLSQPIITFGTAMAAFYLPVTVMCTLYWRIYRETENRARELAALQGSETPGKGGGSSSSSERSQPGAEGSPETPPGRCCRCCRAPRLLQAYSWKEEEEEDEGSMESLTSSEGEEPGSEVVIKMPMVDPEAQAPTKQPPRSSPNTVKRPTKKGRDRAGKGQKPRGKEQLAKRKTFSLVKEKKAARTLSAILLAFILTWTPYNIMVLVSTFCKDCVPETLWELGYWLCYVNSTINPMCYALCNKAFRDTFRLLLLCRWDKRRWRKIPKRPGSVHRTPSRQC
Method: (§1) Procedures for Biological Experiments
(§2) Calcium mobilization assays:
All functional cell-based assays were performed in stable Chinese Hamster Ovary (CHO) cell lines constitutively expressing human M5 or human M1 receptors. For full muscarinic selectivity, CHO cells expressing human M3, human M2 plus Gqi5 or human M4 plus Gqi5 were used. Cells were plated at 15,000 cells per 20 µL per well in black 384-well, TC-treated, clear-bottomed plates (Greiner) in Ham’s F12 medium supplemented with 10% FBS and 20 mM HEPES. Cells were incubated overnight at 37 °C under 5% CO2. The following day, the medium was removed and replaced with 1.2 µM Fluo-4 AM (Invitrogen) in assay buffer (Hank’s Balanced Salt Solution supplemented with 20 mM HEPES and 2.5 mM Probenecid, pH 7.4) and the cells were incubated for 50 minutes at 37 °C under 5% CO2. Dye was then removed and replaced with 20 µL of fresh assay buffer. Test compounds at a 10 mM concentration in DMSO were serially diluted in DMSO (either 1:3 or 1:5 dilution) to create a 10-point concentration series. The DMSO solutions were then diluted in assay buffer resulting in compound solutions at 2-times the final assay concentration with the highest assay concentration of 30 µM. The compound plate, cell plate, and plates containing EC20 and EC80 acetylcholine concentrations were placed in a Hamamatsu FDSS 6000 or 7000 kinetic imaging plate reader equipped to measure Ex480/Em540 fluorescence. Data were collected at 1 frame per second. After 2 seconds of collecting baseline fluorescence, 20 µL of the compound solutions were added to the cell plate. This was followed by the addition of an EC20 concentration of acetylcholine at 142 seconds. […] The fluorescence signal was collected for a total of 300 seconds. […] Data were imported and analyzed in Dotmatics Informatics software. by normalizing all data in the individual kinetic traces to the initial fluorescence read. The magnitude of each agonist addition was then determined and normalized to the average maximum response. […] The IC50 determined using the EC80 of acetylcholine is the value reported. […]

hM2-5 = assay: muscarinic selectivity calcium mobilization (human M2-5); assay type: cell-based
Method: as §1, §2
All functional cell-based assays were performed in stable Chinese Hamster Ovary (CHO) cell lines constitutively expressing human M5 or human M1 receptors. For full muscarinic selectivity, CHO cells expressing human M3, human M2 plus Gqi5 or human M4 plus Gqi5 were used. Cells were plated at 15,000 cells per 20 µL per well in black 384-well, TC-treated, clear-bottomed plates (Greiner) in Ham’s F12 medium supplemented with 10% FBS and 20 mM HEPES. Cells were incubated overnight at 37 °C under 5% CO2. […] The compound plate, cell plate, and plates containing EC20 and EC80 acetylcholine concentrations were placed in a Hamamatsu FDSS 6000 or 7000 kinetic imaging plate reader equipped to measure Ex480/Em540 fluorescence. […] After 2 seconds of collecting baseline fluorescence, 20 µL of the compound solutions were added to the cell plate. […] The fluorescence signal was collected for a total of 300 seconds. […] Data were imported and analyzed in Dotmatics Informatics software. by normalizing all data in the individual kinetic traces to the initial fluorescence read. The magnitude of each agonist addition was then determined and normalized to the average maximum response. […] The IC50 determined using the EC80 of acetylcholine is the value reported. […]

MDCK-MDR1 (P-gp) = target: T2, MDCK-MDR1 (P-gp) (Homo sapiens, UniProt P08183); assay: MDCK-MDR1 permeability and efflux; assay type: in vitro ADME; parameters: Papp at 2 h / efflux ratio at 2 h: dose or concentration left out as unconfirmed; conditions: MDCK-MDR1
T2 construct: host or cells: MDR1-MDCK cell monolayers
Method: (§3) min, with an isocratic hold for 0.5 min, before transitioning to 10% B over 0.05 min. The column was re-equilibrated (1 min) before the next sample injection. The total run time was 2.55 min, and the HPLC flow rate was 0.5 ml/min. The source temperature was set at 500 °C, and mass spectral analyses were performed using a Turbo-Ion spray source in positive ionization mode (5.0-kV spray voltage) and using multiple-reaction monitoring of transitions specific for the analytes. All data were analyzed using AB Sciex Analyst 1.5.1 software. […]
(§4) In-vitro determination of blood-brain barrier penetration potential
(§5) Blood-brain barrier penetration was determined using MDR1-MDCK cell monolayers by Absorption Systems, following their protocol. In short, compounds were incubated at […] final concentration on one side of the cell monolayer for 2 hours. Compounds concentration on either side of the monolayer was determined by LC-MS/MS and apparent permeability and efflux ratio

P-gp (MDR1) = target: T3, P-gp (MDR1) (Homo sapiens, UniProt P08183); assay: MDCK-MDR1 permeability and efflux; assay type: in vitro ADME; parameters: Papp at 2 h / efflux ratio at 2 h: dose or concentration left out as unconfirmed; conditions: dog; for efflux ratio at 2 h: MDCK-MDR1 efflux ratio, read-out: P-gp ER
T3 construct: host or cells: MDR1-MDCK cell monolayers
Method: as §3, §4, §5

T3 sequence (P08183 whole entry): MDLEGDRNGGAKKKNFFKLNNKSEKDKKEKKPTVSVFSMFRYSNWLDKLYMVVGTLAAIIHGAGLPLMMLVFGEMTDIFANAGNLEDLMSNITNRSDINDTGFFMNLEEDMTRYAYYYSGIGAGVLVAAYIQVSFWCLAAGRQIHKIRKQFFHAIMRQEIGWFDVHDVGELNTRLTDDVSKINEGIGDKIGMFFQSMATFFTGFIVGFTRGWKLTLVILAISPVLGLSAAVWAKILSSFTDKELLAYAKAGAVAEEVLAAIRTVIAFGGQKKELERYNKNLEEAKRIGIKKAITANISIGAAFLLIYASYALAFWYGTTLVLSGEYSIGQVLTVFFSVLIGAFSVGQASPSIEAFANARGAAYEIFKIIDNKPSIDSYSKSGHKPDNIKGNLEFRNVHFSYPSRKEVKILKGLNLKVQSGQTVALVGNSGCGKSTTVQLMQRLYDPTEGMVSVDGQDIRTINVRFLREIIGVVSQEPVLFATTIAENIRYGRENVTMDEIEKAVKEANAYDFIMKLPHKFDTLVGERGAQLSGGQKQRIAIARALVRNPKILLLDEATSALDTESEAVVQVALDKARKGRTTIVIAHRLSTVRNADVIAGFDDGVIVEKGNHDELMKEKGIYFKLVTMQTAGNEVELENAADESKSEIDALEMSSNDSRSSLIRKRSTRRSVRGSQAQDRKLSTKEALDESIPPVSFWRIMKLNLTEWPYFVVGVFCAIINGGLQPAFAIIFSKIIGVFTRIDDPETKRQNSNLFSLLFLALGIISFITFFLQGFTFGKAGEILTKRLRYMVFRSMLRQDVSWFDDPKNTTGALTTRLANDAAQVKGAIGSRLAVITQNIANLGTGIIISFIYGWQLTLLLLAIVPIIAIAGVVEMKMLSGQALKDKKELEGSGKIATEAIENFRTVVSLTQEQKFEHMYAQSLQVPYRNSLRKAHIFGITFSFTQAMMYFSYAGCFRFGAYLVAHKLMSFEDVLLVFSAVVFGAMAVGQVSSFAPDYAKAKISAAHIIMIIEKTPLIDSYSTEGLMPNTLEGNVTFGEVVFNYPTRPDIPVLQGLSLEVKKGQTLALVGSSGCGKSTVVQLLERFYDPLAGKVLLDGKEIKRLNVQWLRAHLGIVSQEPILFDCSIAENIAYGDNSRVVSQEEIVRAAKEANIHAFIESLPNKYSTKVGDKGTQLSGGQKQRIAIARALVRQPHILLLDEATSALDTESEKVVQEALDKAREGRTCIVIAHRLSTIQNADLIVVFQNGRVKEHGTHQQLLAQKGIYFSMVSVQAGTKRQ
T2 sequence (P08183 whole entry): as above

Row | Structure (SMILES) | hM1 PAM AChmax (%) (human M1) | pEC50 (hM2-5) | Papp (MDCK-MDR1 (P-gp)) | efflux ratio at 2 h (P-gp (MDR1)) | pEC50 (human M1; human M1, n = 9, read-out: hM1 PAM EC50) | Papp at 2 h (P-gp (MDR1); MDCK-MDR1, MDCK-MDR1)
1 | Cn1cc2c(-c3cc(F)c(CN4Cc5ncccc5C4=O)c(F)c3)cccc2n1 [compound 1, reference compound] | 71% | < 4.52 | 31 ×10⁻⁶ cm/s | 1.6 |  | 
2 | Cn1cc2c(-c3cc(F)c(CN4Cc5ncccc5C4=O)c(F)c3)ccc(C(C)(C)O)c2n1 [compound 7] | 78% and 80% | < 4.52 | 23.1 ×10⁻⁶ cm/s | 1.97 | 7.23 | 23 ×10⁻⁶ cm/s
